From article PMC7002685, “Inhibition of vascular calcification by inositol phosphates derivatized with ethylene glycol oligomers” (Nature Communications, 2020)
“And” between values parts separate entries of the source, which are not always exact repeats. Equal values may be shown once. Read-outs that look alike come from different tables or passages of the source.

Columns and labels:
[1] = tested on: CPPs; test: DLS of CPP hydrodynamic diameter in human serum; design: Dh: unit not given here
Method: To confirm the screening assay data, the hydrodynamic diameter of the CPPs was measured by dynamic light scattering (DLS).
Human serum studies were performed under sterile conditions at 37 °C as described previously. […] For serum background measurements, saline, human serum, and 100 mM HBS (pH 7.4 (RT)) were combined in a volume ratio of 2:8:10. […] The mixtures were incubated with continual slow mixing on a rotator (240 rotations/min, IKA KS 130 Basics Orbital Shaker) at 37 °C. After 1, 3, and 5 h of incubation, 500 µL aliquots were drawn under sterile conditions to prevent microorganism growth contamination and subjected to DLS analysis at 37 °C. For each experiment, three replicates were produced and a single measurement per sample and time point was performed.

[2] = tested on: CPPs; test: TEM and selected area electron diffraction of CPPs; design: species or system human
Method: To confirm the screening assay data, the hydrodynamic diameter of the CPPs was measured by dynamic light scattering (DLS). […] The CPP2 size deduced by DLS is slightly larger than the size derived from transmission electron microscopy (TEM) (Supplementary Figs. 4c and 7a), the latter being in line with previous work[52].
CPPs were prepared (vide supra) and TEM was performed similar to previous reports. […] […] Herein, cell culture grade 50 mM HEPES (1 M HEPES, 5630056, Thermo Fischer Scientific) was used for washing steps, to avoid high solvent and particle background in TEM. In brief, CPPs at 0.5 mg calcium/mL were drop-casted onto a copper grid, 300 mesh, covered with a continuous 8-nm-thick carbon film. The TEM data were collected with an FEI Tecnai F30 FEG TEM operated at 300 kV acceleration voltage and equipped with a Gatan 749 MultiScan CCD camera (Thermo Fischer Scientific). The bright-field images were collected at ×39,000 magnification using a 10-μm objective aperture. To assess the crystallinity of the sample selected area diffraction patterns were collected in parallel at a camera length of 300 mm. The radii of the rings in the diffraction pattern were measured (1/nm) and the associated interplanar d-spacings (nm) were calculated.

[3] = tested on: primary human VSMCs; test: VSMC viability (MTS), compounds only; assay type: cell-based; conditions: for VSMC viability (MTS), % of medium control: compound only
[4] = VSMC viability (MTS) in high-CaP medium; assay type: cell-based, human; conditions: human, read-out: VSMC viability (MTS), % of medium control; for viability at 5 days, 10 µM: 10 µM in high-CaP medium; for viability at 5 days, 100 µM: 100 µM in high-CaP medium
[5] = tested on: primary human VSMCs; test: VSMC viability (MTS) in high-CaP medium; assay type: cell-based
[6] = PK in healthy rats, s.c.; assay type: in vivo, male Sprague-Dawley rats; conditions: for MRT: read-out: mean residence time (MRT) (converted); for plasma concentration: unit not given
[7] = 0.01 µM in high-CaP medium, replicates Fig. 3d
[8] = male, Sprague-Dawley, rat, in vivo, sc, 10 mg/kg s.c.
[9] = male, Sprague-Dawley, rat, in vivo, sc, 50 mg/kg s.c.
[10] = Supl.Fig.4 panel b, time 1 (unit not given)
[11] = male, Sprague-Dawley, rat, plasma, sc, 100 mg/kg s.c.

## COCCOCCO[C@@H]1[C@@H](OP(=O)(O)O)[C@H](OCCOCCOC)[C@@H](OP(=O)(O)O)[C@@H](OP(=O)(O)O)[C@H]1OP(=O)(O)O [(OEG2)2-IP4, 4,6-Di-O-(methoxy-diethyleneglycol)-myo-inositol-1,2,3,5-tetrakis(phosphate)]
[1]; added to CPP1s at a final concentration of 30 µM
  CPP particle growth (DLS): stabilized particle growth
[2]; 10 µM
  CPP morphology (TEM): matched those of CPP2s
[2]; 100 µM, 14 h, 37 °C
  CPP crystallinity (selected area electron diffraction): largely amorphous
  CPP morphology (TEM): spherical-shaped CPP1s
[3]; 0.01 µM, replicates Fig. 3a
  VSMC viability (MTS), % of medium control: 106.7% and 112.6% and 127.9%
[3]; 0.1 µM
  VSMC viability (MTS), % of medium control: 105.4% and 101.1% and 125.7%
[3]; 1 µM
  VSMC viability (MTS), % of medium control: 106.9% and 113.8%
[3]; 10 µM
  VSMC viability (MTS), % of medium control: 100.7% and 120.7%
[3]; 100 µM
  VSMC viability (MTS), % of medium control: 101.2% and 99.46% and 122.9%
[3]; 0.01–100 µM
  changes in cell viability: did not lead to any changes in cell viability
[4]; [7]
  viability at 5 days, 0.01 µM: 65.9%
[4]; 0.1 µM in high-CaP medium
  viability at 5 days, 0.1 µM: 72.3%
[4]
  viability at 5 days, 10 µM: 71.1%
  viability at 5 days, 100 µM: 83.5%
[5]; [7]
  VSMC viability (MTS), % of medium control: 53.4% and 66.46%
[5]; 0.1 µM in high-CaP medium
  VSMC viability (MTS), % of medium control: 53.2% and 65.81%
[5]; 1 µM in high-CaP medium
  VSMC viability (MTS), % of medium control: 67.8% and 94.42% and 93.48%
[5]; 10 µM in high-CaP medium
  VSMC viability (MTS), % of medium control: 90.2% and 89.04%
[5]; 100 µM in high-CaP medium
  VSMC viability (MTS), % of medium control: 91.5% and 93.79%
[5]; 0.01 and 0.1 µM
  cell viability vs high-CaP medium control: slightly decreased
[6]; male, Sprague-Dawley, rat, in vivo, sc, 10 mg/kg, 10 mg/kg s.c., t = 360 min
  AUC(0-t): 19.8 µM·h
[6]; male, Sprague-Dawley, rat, in vivo, sc, 50 mg/kg, 50 mg/kg s.c., tlast 1440 min
  AUC(0-t): 120 µM·h
[6]; [8]
  AUC(0-inf): 19.9 µM·h
  Tmax: 25 min
[6]; male, Sprague-Dawley, rat, in vivo, sc, 10 mg/kg s.c., healthy rats
  half-life: 47 ± 1 min
[6]; male, Sprague-Dawley, rat, in vivo, sc, 10 mg/kg s.c., read-out: Cmax
  Cmax: 12 ± 1 µM
[6]; [9]
  AUC(0-inf): 122 µM·h
  half-life: 190 ± 66 min
[6]; male, Sprague-Dawley, rat, in vivo, sc, 50 mg/kg s.c., read-out: Cmax
  Cmax: 71 ± 26 µM
[6]; male, Sprague-Dawley, rat, in vivo, sc
  MRT: 78 min

## O=P(O)(O)O[C@H]1[C@H](OP(=O)(O)O)[C@@H](OP(=O)(O)O)[C@H](OP(=O)(O)O)[C@@H](OP(=O)(O)O)[C@H]1OP(=O)(O)O [IP6, myo-Inositol hexakisphosphate]
[1]; [10]
  Dh: 88.6 and 105.8 and 120.4
  PDI: 0.387 and 0.354 and 0.351
[1]; Supl.Fig.4 panel b, time 3
  Dh: 117.9 and 117.1 and 132.1
  PDI: 0.358 and 0.359
[1]; Supl.Fig.4 panel b, time 5
  Dh: 120.1 and 126.7 and 139.4
  PDI: 0.352 and 0.371 and 0.353
[1]; Supl.Fig.4 panel d, time 1
  Dh: 134.2 and 137.5 and 124.1
  PDI: 0.243 and 0.215 and 0.244
[1]; Supl.Fig.4 panel d, time 3
  PDI: 0.263 and 0.405 and 0.247
[1]; Supl.Fig.4 panel d, time 5
  Dh: 829.4 and 949 and 968.9
  PDI: 0.375 and 0.401 and 0.371
[1]; Supl.Fig.4 panel e, time 1
  Dh: 121.9 and 131.6 and 127.5
  PDI: 0.239 and 0.253 and 0.225
[1]; Supl.Fig.4 panel e, time 3
  Dh: 917.4 and 1163.2 and 967.1
  PDI: 0.279 and 0.365 and 0.211
[1]; Supl.Fig.4 panel e, time 5
  Dh: 1239.9 and 912.5 and 1030.4
  PDI: 0.335 and 0.413 and 0.307
[1]; Supl.Fig.4 panel f, time 1
  Dh: 151.1 and 134.7 and 128.6
  PDI: 0.231 and 0.246 and 0.242
[1]; Supl.Fig.4 panel f, time 3
  Dh: 1215.5 and 1246.8 and 894.9
[1]; Supl.Fig.4 panel f, time 5
  Dh: 938.5 and 1174.7 and 1102.1
  PDI: 0.341 and 0.349 and 0.237
[1]; Supl.Fig.4 panel g, time 1
  Dh: 161.6 and 144.6 and 111.2
  PDI: 0.205 and 0.233 and 0.237
[1]; Supl.Fig.4 panel g, time 3
  PDI: 0.21 and 0.2 and 0.256
[1]; Supl.Fig.4 panel g, time 5
  PDI: 0.256 and 0.391 and 0.263
[1]; Supl.Fig.4 panel h, time 1
  Dh: 140.9 and 155.6 and 124.7
  PDI: 0.242 and 0.211 and 0.261
[1]; Supl.Fig.4 panel h, time 3
  PDI: 0.224 and 0.271 and 0.403
[1]; Supl.Fig.4 panel h, time 5
  Dh: 698.6 and 1132.6 and 867.3
  PDI: 0.295 and 0.332 and 0.35
[1]; Supl.Fig.4 panel i, time 1
  Dh: 144.5 and 156.7 and 136.9
  PDI: 0.23 and 0.222 and 0.25
[1]; Supl.Fig.4 panel i, time 3
  Dh: 161.1 and 174.2 and 140.3
  PDI: 0.256 and 0.273 and 0.247
[1]; Supl.Fig.4 panel i, time 5
  Dh: 832.1 and 1065.7 and 818.8
  PDI: 0.38 and 0.379 and 0.375
[2]; 100 µM, 14 h, 37 °C
  CPP morphology (TEM): spindle-shaped CPP2s
[3]; 0.01 µM, replicates Fig. 3a
  VSMC viability (MTS), % of medium control: 107.6% and 117.7% and 127.9%
[3]; 0.1 µM
  VSMC viability (MTS), % of medium control: 101.2% and 116.5% and 123.9%
[3]; 1 µM
  VSMC viability (MTS), % of medium control: 102.4% and 110.2% and 123.7%
[3]; 10 µM
  VSMC viability (MTS), % of medium control: 107.1% and 105.1% and 128.6%
[3]; 100 µM
  VSMC viability (MTS), % of medium control: 108.9% and 116.9% and 143.6%
[4]; primary human VSMCs, 1 µM in high-CaP medium
  viability at 5 days, 1 µM: 68.8%
[4]; primary human VSMCs
  viability at 5 days, 10 µM: 69.9%
  viability at 5 days, 100 µM: 78.7%
[5]; [7]
  VSMC viability (MTS), % of medium control: 67.31% and 30.78% and 56.19%
[5]; 0.1 µM in high-CaP medium
  VSMC viability (MTS), % of medium control: 69.48% and 36.65% and 58.54%
[5]; 1 µM in high-CaP medium
  VSMC viability (MTS), % of medium control: 54.02% and 63.76%
[5]; 10 µM in high-CaP medium
  VSMC viability (MTS), % of medium control: 84.96% and 80.54%
[5]; 100 µM in high-CaP medium
  VSMC viability (MTS), % of medium control: 97.34% and 86.99%
[6]; 10 mg/kg s.c.
  plasma concentrations (below lower limit of quantification): < 0.772 µM
[6]; 10 mg/kg s.c., LLOQ = 772 nM
  Cmax: < LLOQ
[6]; 100 mg/kg s.c., 5 min
  plasma concentration: 20.1 and 17.5 and 23.6
[6]; 100 mg/kg s.c., 0.5 h
  plasma concentration: 13.6 and 19.8 and 10.3
[6]; [11]
  AUC(0-inf): 22.4 µM·h
  Tmax: 12 min
  half-life: 29 ± 15 min
[6]; male, Sprague-Dawley, rat, plasma, sc, 100 mg/kg s.c., t = 90 min (Fig. 4d; tlast 360 in Suppl. Table 2)
  AUC(0-t): 19.4 µM·h
[6]; male, Sprague-Dawley, rat, plasma, sc, 100 mg/kg s.c., read-out: Cmax
  Cmax: 33 ± 10 µM
[6]; male, Sprague-Dawley, rat, plasma, sc
  MRT: 45 min
